The source of these data is patent US20210317099A1, “SAFER, POTENT, AND FAST ACTING ANTIMICROBIAL AGENTS” (Purdue Research Foundation, priority 2020, published 2021).

Molecules are shown by their SMILES. In brackets after ≈: the same amount, converted by molar mass.

One assay has as its system MRSA NRS 386. Put plainly: MIC, Gram-positive panel. Conditions: Staphylococcus aureus; MRSA NRS 386; read-out: MIC. The class given is cell-based. Summed up: (§1)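 Strains are first grown aerobically overnight at 37° C on tryptone soya agar. A 0.5 McFarland suspension is then diluted in cation-adjusted Mueller-Hinton broth, compounds are serially diluted across the plate with this inoculum, and plates stand aerobically at 37° C for 18-20 h.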

Assay [1] concerns Methicillin-resistant S. pneumoniae ATCC 700677. Briefly: MIC, Gram-positive panel. The class given is cell-based. As to conditions: Streptococcus pneumoniae, ATCC700677; Methicillin-resistant S. pneumoniae ATCC 700677; read-out: MIC. The essentials: as §1
The test system of assay [2] is Enterococcus faecalis ATCC 51299 (VRE). Briefly: MIC, Gram-positive panel. Format: cell-based. Conditions: Enterococcus faecalis ATCC 51299 (VRE); read-out: MIC. The essentials: as §1
A further assay has as its system MRSA NRS 123. Put plainly: MIC, Gram-positive panel. As to conditions: Staphylococcus aureus; MRSA NRS 123; read-out: MIC. Format: cell-based. The essentials:
as §1

Assay [3] relates to Methicillin-resistant S. epidermidis NRS101. Briefly: MIC, Gram-positive panel. Conditions: Staphylococcus epidermidis; Methicillin-resistant S. epidermidis NRS101; read-out: MIC. The class given is cell-based. The essentials:
as §1

For the next assay, the system named is S. pneumoniae ATCC 51916. Briefly: MIC, Gram-positive panel. As to conditions: Streptococcus pneumoniae, ATCC51916; S. pneumoniae ATCC 51916; read-out: MIC. Format: cell-based. Summed up:
as §1

In another assay the test system is VRSA 10. Put plainly: MIC, Gram-positive panel. Conditions: Staphylococcus aureus; VRSA 10; read-out: MIC. The class given is cell-based. The essentials:
as §1

The subject of another assay is MRSA NRS 385. Put plainly: MIC, Gram-positive panel. The class given is cell-based. Conditions: Staphylococcus aureus; MRSA NRS 385; read-out: MIC. The essentials:
as §1

For another assay, the system named is S. aureus NRS 107. Put plainly: MIC, Gram-positive panel. The class given is cell-based. Conditions: Staphylococcus aureus, NRS107; S. aureus NRS 107; read-out: MIC. Summed up:
as §1

Assay [4] concerns Enterococcus faecium ATCC 700221 (VRE). Briefly: MIC, Gram-positive panel. Conditions: Enterococcus faecium ATCC 700221 (VRE); read-out: MIC. Format: cell-based. Summed up: as §1
A further assay deals with S. aureus ATCC 6538. Briefly: MIC, Gram-positive panel. Format: cell-based. Conditions: Staphylococcus aureus, ATCC6538; S. aureus ATCC 6538; read-out: MIC. The essentials:
as §1

Assay [5] relates to intracellular MRSA USA400 inside murine macrophage (J774) cells. Put plainly: Clearance of intracellular MRSA in infected J774 macrophages. As to conditions: 24 hours, J774 infected with MRSA USA400. The class given is cell-based, Staphylococcus aureus. Here is the method: The ability of the compound 148 to reduce the burden of intracellular MRSA was evaluated utilizing previously described methods. Murine macrophage cells (J774) were cultured in Dulbecco's Modified Eagle Medium (DMEM) supplemented with 10% FBS at 37° C. with CO2 (5%). J774 cells were exposed to MRSA USA400 cells at a multiplicity of infection of approximately 10:1. After 1 hour of infection, J774 cells were washed with gentamicin (200 μg/mL) to kill extracellular MRSA. The compounds or vancomycin (at 4×MIC and 8×MIC) were subsequently added to each well (four replicates per test agent). Control cells received DMSO at a concentration equal to that in drug-treated cell samples. After 24 hours-incubation at 37° C. with 5% CO2, the test agents were removed. J774 cells were washed and subsequently lysed using 0.1% Triton-X. The solution was serially diluted in phosphate-buffered saline and transferred to TSA plates in order to determine viable MRSA CFU inside the J774 cells. Plates were incubated at 37° C. for 18-22 hour before counting viable CFU/mL. Statistical significance was assessed with two-way ANOVA, with post hoc Dunnet's multiple comparisons test (P<0.05), utilizing GraphPad Prism 6.0 (GraphPad Software, La Jolla, Calif.).
FIG. 6. Examination of the activity of compounds 148 on the clearance of intracellular MRSA present inside infected murine macrophage (J774) cells. […] Data were analyzed via two-way ANOVA, with post hoc Dunnet's multiple comparisons test (P<0.05), utilizing GraphPad Prism 6.0 (GraphPad Software, La Jolla, Calif.). Asterisks (*) represent significant difference between treatment of J774 cells with compound 148 in comparison to vancomycin.

Consider `C=C1C(=O)O[C@H](c2ccc3ccccc3c2)[C@@H]1c1ccc2ccccc2c1` [Compound 158], for which the MIC is 1 µg/mL (≈ 2.85 µM) in the assay on MRSA NRS 386; 2 µg/mL (≈ 5.71 µM) in [1]; over 64 µg/mL in assay [2]; 1 µg/mL (≈ 2.85 µM) in the assay with MRSA NRS 123; 0.5 µg/mL (≈ 1.43 µM) in assay [3]; 2 µg/mL (≈ 5.71 µM) in the assay on S. pneumoniae ATCC 51916. Further, the MIC with VRSA 10 is 1 µg/mL (≈ 2.85 µM); in the assay on MRSA NRS 385, 1 µg/mL (≈ 2.85 µM); with S. aureus NRS 107 it was 1 µg/mL (≈ 2.85 µM); in assay [4] it was over 64 µg/mL; with S. aureus ATCC 6538, 1 µg/mL (≈ 2.85 µM).
Turning to `C=C1C(=O)O[C@H](c2cccc3ccccc23)[C@@H]1c1ccc2ccccc2c1` [Compound 155], the MIC in the assay on MRSA NRS 386 was 1 µg/mL (≈ 2.85 µM); in [1], 1 µg/mL (≈ 2.85 µM); in assay [2], over 64 µg/mL; in the assay on MRSA NRS 123 it was 1 µg/mL (≈ 2.85 µM); in assay [3], 1 µg/mL (≈ 2.85 µM); in the assay on S. pneumoniae ATCC 51916 it was 1 µg/mL (≈ 2.85 µM). In addition, the MIC in the assay on VRSA 10 is 1 µg/mL (≈ 2.85 µM); in the assay on MRSA NRS 385 it was 1 µg/mL (≈ 2.85 µM); in the assay with S. aureus NRS 107 it was 1 µg/mL (≈ 2.85 µM); in assay [4] it was over 64 µg/mL; in the assay with S. aureus ATCC 6538, 1 µg/mL (≈ 2.85 µM).
As for `C=C(C(=O)OC)C(c1ccc2ccccc2c1)C(O)c1cccc2ccccc12` (stereo not drawn) [Compound 148], the “reduction of intracellular MRSA” value was 0.8 log10 in assay [5] (4 μg/mL) and “about 2.52 log10” in [5] (8 μg/mL). Also, the “reduction of intracellular MRSA (percent)” value in assay [5] (4 μg/mL) is 84.9%; in assay [5] (8 μg/mL) it was 99.7%. The MIC in the assay with MRSA NRS 386 is 1 µg/mL (≈ 2.61 µM); in assay [1], 1 µg/mL (≈ 2.61 µM); in [2] it was over 64 µg/mL; with MRSA NRS 123, 1 µg/mL (≈ 2.61 µM); in assay [3], 1 µg/mL (≈ 2.61 µM); in the assay with S. pneumoniae ATCC 51916, 1 µg/mL (≈ 2.61 µM). Besides, the MIC was 2 µg/mL (≈ 5.23 µM) in the assay with VRSA 10; 1 µg/mL (≈ 2.61 µM) with MRSA NRS 385; 1 µg/mL (≈ 2.61 µM) in the assay on S. aureus NRS 107; over 64 µg/mL in assay [4]; 1 µg/mL (≈ 2.61 µM) in the assay on S. aureus ATCC 6538.
For `C=C1C(=O)O[C@H](c2ccccc2)[C@@H]1c1cccc2ccccc12` [Compound 151], the MIC in the assay with MRSA NRS 386 is 1 µg/mL (≈ 3.33 µM); in assay [1] it was 4 µg/mL (≈ 13.3 µM); in assay [2] it was over 64 µg/mL; in the assay on MRSA NRS 123 it was 2 µg/mL (≈ 6.66 µM); in [3] it was 8 µg/mL (≈ 26.6 µM); in the assay with S. pneumoniae ATCC 51916 it was 4 µg/mL (≈ 13.3 µM). Also, the MIC in the assay with VRSA 10 was 2 µg/mL (≈ 6.66 µM); in the assay with MRSA NRS 385, 1 µg/mL (≈ 3.33 µM); with S. aureus NRS 107, 2 µg/mL (≈ 6.66 µM); in [4], over 64 µg/mL; in the assay on S. aureus ATCC 6538, 2 µg/mL (≈ 6.66 µM).
